Experimental findings from US20240025906A1 (NEURON23, INC., priority 2022, published 2024) are described below.

pIC50, pKd: −log10 of the molar value.

Assay [1] has as its system JAK1/TYK2 pSTAT5 (Tyr694/699) in THP-1 cell line. Put plainly: IFNa-stimulated JAK1/TYK2 pSTAT5 (Tyr694/699) inhibition cellular assay, AlphaLISA. The note with it: Homo sapiens; THP-1 cells, IFNa-stimulated, AlphaLISA (Assay B); read-out: Cellular_THP1_IFNa-pSTATS_TYK2. Format: cell-based. Summed up:
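THP-1 cells (2e4/well) in HBSS preincubated 1 h at 37° C. with compound (final 10000–0.04 nM, 8 points, 6-fold), then stimulated with IFNa (100 ng/mL stock) for 30 min before lysis. pSTAT5 (Tyr694/699) read by AlphaLISA at 615 nm; IC50 from four-parameter logistic fit with bottom fixed at 0 and Hill slope at −1.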
(In general: Alpha assays give light when donor and acceptor beads are brought close together.)

Another assay concerns the target T1, TYK2 JH2 (Homo sapiens, UniProt P29597).
T1 construct: purchased DiscoverX (KINOMEscan KdELECT service); host or cells: E. coli BL21-derived (T7 phage display) or HEK-293
Put plainly: TYK2 JH2 binding assay (KINOMEscan KdELECT competitive binding). The note with it: TYK2 JH2 domain, KINOMEscan KdELECT (Assay A); read-out: Biochemical TYK2_DiscoverX_JH2_BND_Kd. In outline:
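Test compounds were titrated in 11 three-fold steps against JH2 fragment captured on ligand-loaded magnetic beads, with 1 h incubation at room temperature and DMSO at 0.9%. Eluted kinase was quantified by qPCR, and Kd was fitted from the dose series.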

T1 sequence (P29597 589-875 limits assumed): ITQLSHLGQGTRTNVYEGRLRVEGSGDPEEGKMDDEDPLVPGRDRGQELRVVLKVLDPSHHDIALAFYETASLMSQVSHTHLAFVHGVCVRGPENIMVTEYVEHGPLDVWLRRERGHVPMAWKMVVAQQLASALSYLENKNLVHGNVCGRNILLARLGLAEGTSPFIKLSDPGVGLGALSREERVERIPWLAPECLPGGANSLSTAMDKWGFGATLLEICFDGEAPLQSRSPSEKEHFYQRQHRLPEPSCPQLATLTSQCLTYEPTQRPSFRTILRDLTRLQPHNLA

Consider `CNc1ncc(C#Cc2ncn(C)n2)c2cc(NC(=O)C3CC3)ncc12` [Example 597, N-(5-((1-methyl-1H-1,2,4-triazol-3-yl)ethynyl)-8-(methylamino)-2,7-naphthyridin-3-yl)cyclopropanecarboxamide], for which the pIC50 in assay [1] was at least 6.30. For the same molecule, the pKd at TYK2 JH2 is at least 7.00.

`CNc1ncc(C#Cc2nc3ccccn3n2)c2cc(NC(=O)C3CC3)ncc12` [Example 598, N-(5-([1,2,4]triazolo[1,5-a]pyridin-2-ylethynyl)-8-(methylamino)-2,7-naphthyridin-3-yl)cyclopropanecarboxamide]: the pIC50 in assay [1] is at least 6.30. The pKd on TYK2 JH2 is at least 7.00.

Regarding `CNc1ncc(C#Cc2ccncn2)c2cc(NC(=O)C3CC3)ncc12` [Example 599, N-(8-(methylamino)-5-(pyrimidin-4-ylethynyl)-2,7-naphthyridin-3-yl)cyclopropanecarboxamide], the pIC50 in assay [1] was at least 6.30. Moreover, the pKd on TYK2 JH2 is at least 7.00.

Consider `CNc1ncc(C#Cc2cnco2)c2cc(NC(=O)C3CC3)ncc12` [Example 600, N-(8-(methylamino)-5-(oxazol-5-ylethynyl)-2,7-naphthyridin-3-yl)cyclopropanecarboxamide], for which, in assay [1], the pIC50 is at least 6.30. Moreover, the pKd on TYK2 JH2 is at least 7.00.

`CNc1ncc(C#Cc2ccnc(C)c2)c2cc(NC(=O)C3CC3)ncc12` [Example 601, N-(8-(methylamino)-5-((2-methylpyridin-4-yl)ethynyl)-2,7-naphthyridin-3-yl)cyclopropanecarboxamide]: the pIC50 in assay [1] is at least 6.30. In addition, the pKd at TYK2 JH2 was at least 7.00.

As for `CNc1ncc(C#Cc2ccn3cnnc3c2)c2cc(NC(=O)C3CC3)ncc12` [Example 607, N-(5-([1,2,4]triazolo[4,3-a]pyridin-7-ylethynyl)-8-(methylamino)-2,7-naphthyridin-3-yl)cyclopropanecarboxamide], the pIC50 in assay [1] is at least 6.30. Also, the pKd on TYK2 JH2 is at least 7.00.

Consider `CNc1ncc(C#Cc2ccc(O)c(C#N)c2)c2cc(NC(=O)C3CC3)ncc12` [Example 608, N-(5-((3-cyano-4-hydroxyphenyl)ethynyl)-8-(methylamino)-2,7-naphthyridin-3-yl)cyclopropanecarboxamide], for which, in assay [1], the pIC50 was at least 6.30. Also, the pKd on TYK2 JH2 is at least 7.00.

`CNc1ncc(C#Cc2ccn3ncnc3c2)c2cc(NC(=O)C3CC3)ncc12` [Example 609, N-(5-([1,2,4]triazolo[1,5-a]pyridin-7-ylethynyl)-8-(methylamino)-2,7-naphthyridin-3-yl)cyclopropanecarboxamide]: the pIC50 in assay [1] is at least 6.30. For the same molecule, the pKd on TYK2 JH2 is at least 7.00.

Take `CNc1ncc(C#Cc2ccc(S(C)(=O)=O)cc2)c2cc(NC(=O)C3CC3)ncc12` [Example 610, N-(8-(methylamino)-5-((4-(methylsulfonyl)phenyl)ethynyl)-2,7-naphthyridin-3-yl)cyclopropanecarboxamide]: the pIC50 in assay [1] was at least 6.30. Besides, the pKd on TYK2 JH2 was at least 7.00.

Consider `CNc1ncc(C#Cc2cnc3cccnn23)c2cc(NC(=O)C3CC3)ncc12` [Example 611, N-(5-(imidazo[1,2-b]pyridazin-3-ylethynyl)-8-(methylamino)-2,7-naphthyridin-3-yl)cyclopropanecarboxamide], for which the pIC50 in assay [1] was at least 6.30. In addition, on TYK2 JH2, the pKd is at least 7.00.

On to `CNc1ncc(C#Cc2ccncc2OC)c2cc(NC(=O)C3CC3)ncc12` [Example 612, N-(5-((3-methoxypyridin-4-yl)ethynyl)-8-(methylamino)-2,7-naphthyridin-3-yl)cyclopropanecarboxamide], for which the pIC50 in assay [1] was at least 6.30. Further, on TYK2 JH2, the pKd was at least 7.00.

`CNc1ncc(C#Cc2ccc(OC)cn2)c2cc(NC(=O)C3CC3)ncc12` [Example 613]: the pIC50 in assay [1] was at least 6.30. For the same molecule, the pKd on TYK2 JH2 was at least 7.00.

Consider `CNc1ncc(C#Cc2ccc3c(c2)n(C)c(=O)n3C)c2cc(NC(=O)C3CC3)ncc12` [Example 614, N-(5-((1,3-dimethyl-2-oxo-2,3-dihydro-1H-benzo[d]imidazol-5-yl)ethynyl)-8-(methylamino)-2,7-naphthyridin-3-yl)cyclopropanecarboxamide], for which the pIC50 in assay [1] was at least 6.30. For the same molecule, the pKd on TYK2 JH2 is at least 7.00.

As to `CNc1ncc(C#Cc2ccn3c(C)nnc3c2)c2cc(NC(=O)C3CC3)ncc12` [Example 615, N-(5-((3-methyl-[1,2,4]triazolo[4,3-a]pyridin-7-yl)ethynyl)-8-(methylamino)-2,7-naphthyridin-3-yl)cyclopropanecarboxamide], the pIC50 in assay [1] is at least 6.30. Besides, at TYK2 JH2, the pKd is at least 7.00.

As for `CNc1ncc(C#Cc2ccc3ncn(C)c3c2)c2cc(NC(=O)C3CC3)ncc12` [Example 616, N-(5-((1-methyl-1H-benzo[d]imidazol-6-yl)ethynyl)-8-(methylamino)-2,7-naphthyridin-3-yl)cyclopropanecarboxamide], the pIC50 in assay [1] is at least 6.30. For the same molecule, the pKd at TYK2 JH2 is at least 7.00.

Consider `CNc1ncc(C#Cc2ccc3cnn(C)c3c2)c2cc(NC(=O)C3CC3)ncc12` [Example 617], for which, in assay [1], the pIC50 was at least 6.30. The pKd on TYK2 JH2 is at least 7.00.

In the case of `CNc1ncc(C#Cc2ccc3c(c2)nnn3C)c2cc(NC(=O)C3CC3)ncc12` [Example 618, N-(5-((1-methyl-1H-benzo[d][1,2,3]triazol-5-yl)ethynyl)-8-(methylamino)-2,7-naphthyridin-3-yl)cyclopropanecarboxamide], the pIC50 in assay [1] is at least 6.30. Moreover, on TYK2 JH2, the pKd is at least 7.00.

Take `CNc1ncc(C#Cc2cn3ccccc3n2)c2cc(NC(=O)C3CC3)ncc12` [Example 619, N-(5-(imidazo[1,2-a]pyridin-2-ylethynyl)-8-(methylamino)-2,7-naphthyridin-3-yl)cyclopropanecarboxamide]: in assay [1], the pIC50 was at least 6.30. In addition, the pKd at TYK2 JH2 was at least 7.00.

For `CNc1ncc(C#Cc2ccc3ncccc3c2)c2cc(NC(=O)C3CC3)ncc12` [Example 620, N-(8-(methylamino)-5-(quinolin-6-ylethynyl)-2,7-naphthyridin-3-yl)cyclopropanecarboxamide], the pIC50 in assay [1] was at least 6.30. Moreover, the pKd on TYK2 JH2 is at least 7.00.

For the molecule `CNc1ncc(C#Cc2ccnc(C(F)F)c2)c2cc(NC(=O)C3CC3)ncc12` [Example 621, N-(5-((2-(difluoromethyl)pyridin-4-yl)ethynyl)-8-(methylamino)-2,7-naphthyridin-3-yl)cyclopropanecarboxamide], the pIC50 in assay [1] is at least 6.30. The pKd at TYK2 JH2 is at least 7.00.

In the case of `CNc1ncc(C#Cc2ccc3ocnc3c2)c2cc(NC(=O)C3CC3)ncc12` [Example 622, N-(5-(benzo[d]oxazol-5-ylethynyl)-8-(methylamino)-2,7-naphthyridin-3-yl)cyclopropanecarboxamide], the pIC50 in assay [1] is at least 6.30. Besides, at TYK2 JH2, the pKd is at least 7.00.

In the case of `CNc1ncc(C#Cc2ccnc(C(F)(F)F)c2)c2cc(NC(=O)C3CC3)ncc12` [Example 623, N-(8-(methylamino)-5-((2-(trifluoromethyl)pyridin-4-yl)ethynyl)-2,7-naphthyridin-3-yl)cyclopropanecarboxamide], the pIC50 in assay [1] was at least 6.30. Besides, the pKd at TYK2 JH2 was at least 7.00.

For `CNc1ncc(C#Cc2ccc(N3CCOCC3)cc2)c2cc(NC(=O)C3CC3)ncc12` [Example 624, N-(8-(methylamino)-5-((4-morpholinophenyl)ethynyl)-2,7-naphthyridin-3-yl)cyclopropanecarboxamide], the pIC50 in assay [1] was at least 6.30. For the same molecule, at TYK2 JH2, the pKd is at least 7.00.

Take `CNc1ncc(C#Cc2ccc3ncn(C4CC4)c3c2)c2cc(NC(=O)C3CC3)ncc12` [Example 625, N-(5-((1-cyclopropyl-1H-benzo[d]imidazol-6-yl)ethynyl)-8-(methylamino)-2,7-naphthyridin-3-yl)cyclopropanecarboxamide]: in assay [1], the pIC50 was at least 6.30. Further, at TYK2 JH2, the pKd is at least 7.00.

As for `CNc1ncc(C#Cc2ccn3ccnc3c2)c2cc(NC(=O)C3CC3)ncc12` [Example 626, N-(5-(imidazo[1,2-a]pyridin-7-ylethynyl)-8-(methylamino)-2,7-naphthyridin-3-yl)cyclopropanecarboxamide], the pIC50 in assay [1] is at least 6.30. For the same molecule, the pKd at TYK2 JH2 is at least 7.00.

`CNc1ncc(C#Cc2ccc3nccnc3c2)c2cc(NC(=O)C3CC3)ncc12` [Example 627, N-(8-(methylamino)-5-(quinoxalin-6-ylethynyl)-2,7-naphthyridin-3-yl)cyclopropanecarboxamide]: the pIC50 in assay [1] was at least 6.30. Also, at TYK2 JH2, the pKd was at least 7.00.

Consider `CNc1ncc(C#Cc2ccc3nc(C)sc3c2)c2cc(NC(=O)C3CC3)ncc12` [Example 628, N-(8-(methylamino)-5-((2-methylbenzo[d]thiazol-6-yl)ethynyl)-2,7-naphthyridin-3-yl)cyclopropanecarboxamide], for which the pIC50 in assay [1] was at least 6.30. On TYK2 JH2, the pKd is at least 7.00.

For `CNc1ncc(C#Cc2cccc(OC)c2)c2cc(NC(=O)C3CC3)ncc12` [Example 629, N-(5-((3-methoxyphenyl)ethynyl)-8-(methylamino)-2,7-naphthyridin-3-yl)cyclopropanecarboxamide], the pIC50 in assay [1] was at least 6.30. Moreover, the pKd on TYK2 JH2 is at least 7.00.

On to `CNc1ncc(C#Cc2ccccc2OC)c2cc(NC(=O)C3CC3)ncc12` [Example 630, N-(5-((2-methoxyphenyl)ethynyl)-8-(methylamino)-2,7-naphthyridin-3-yl)cyclopropanecarboxamide], for which the pIC50 in assay [1] was at least 6.30. For the same molecule, on TYK2 JH2, the pKd was at least 7.00.
